Experimental data reported in patent US6838479B2, “Amidine inhibitors of serine proteases” (Genentech, Inc., priority 2000, dated 2005).

Columns and labels:
[1] = molecular target: tissue factor/factor VIIa (Homo sapiens, UniProt P08709); assay: Tissue Factor/Factor VIIa antagonist assay (chromogenic, Ki); format: biochemical; conditions: 10 nM VIIa, 30 nM TF, Chromozym-tPA 1.33 mM; read-out: binding affinity to serine proteases: VIIa
Description: Tissue Factor/Factor VIIa Antagonist Assay
This procedure is used to determine the constant of inhibition (Ki) for a sample compound of the invention.
Procedure • 1. Prepare a solution of 2 μg/mL (90 nM) tissue factor and 1.5 μg/mL (30 nM) factor VIIa in assay buffer with CaCl2. • 2. Incubate for 15 minutes at room temperature. • 3. Add 50 μL sample to each well. • 4. Add 50 μL tissue factor/factor VIIa solution to each well. • 5. Incubate for 15 minutes at room temperature with gentle agitation. • 6. Add 50 μL substrate to each well. • 7. Agitate plate for 20-25 sec. • 8. Monitor absorbance at 405 nm every 10 see for a total of 5 minutes at room temperature. • 9. Calculate Vmax over 10 points.

human Factor Xa = molecular target: T1, human Factor Xa (Homo sapiens, UniProt P00742); assay: Factor Xa assay (chromogenic, Ki); format: biochemical; conditions: 3.3 nM Xa, S-2222 0.5 mM; read-out: binding affinity to serine proteases: Xa
T1 construct: This complex converts factor X to Xa
Description: Factor Xa, Thrombin, and Plasma Kallikrein Assays
These procedures are used to determine the constant of inhibition (Ki) for a sample compound of the invention.
Procedure • 1. Add 50 μL sample to each well. • 2. Add 50 μL appropriately diluted coagulation factor to each well. • 3. Incubate for 5 minutes at room temperature with gentle agitation. • 4. Add 50 μL appropriately diluted substrate to each well. • 5. Agitate plate for 20-25 sec. • 6. Monitor absorbance at 405 nm every 10 sec for a total of 5 minutes at room temperature. • 7. Calculate Vmax over 10 points.

tissue factor/factor VIIa, sequence (P08709 213-466 limits assumed): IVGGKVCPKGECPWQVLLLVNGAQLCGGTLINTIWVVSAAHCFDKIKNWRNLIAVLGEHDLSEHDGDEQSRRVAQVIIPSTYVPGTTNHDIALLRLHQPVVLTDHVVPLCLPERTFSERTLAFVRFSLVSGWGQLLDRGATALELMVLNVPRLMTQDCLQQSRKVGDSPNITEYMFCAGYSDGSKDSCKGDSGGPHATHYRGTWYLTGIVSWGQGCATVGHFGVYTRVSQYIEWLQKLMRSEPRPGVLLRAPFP
tissue factor/factor VIIa, sequence (P08709 61-212 limits assumed): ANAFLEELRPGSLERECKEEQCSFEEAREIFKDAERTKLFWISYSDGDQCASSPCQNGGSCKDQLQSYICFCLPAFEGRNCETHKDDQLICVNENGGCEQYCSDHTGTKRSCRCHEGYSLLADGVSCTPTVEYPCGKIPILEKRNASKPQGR
tissue factor/factor VIIa, sequence (P13726 33-251 partner limits assumed): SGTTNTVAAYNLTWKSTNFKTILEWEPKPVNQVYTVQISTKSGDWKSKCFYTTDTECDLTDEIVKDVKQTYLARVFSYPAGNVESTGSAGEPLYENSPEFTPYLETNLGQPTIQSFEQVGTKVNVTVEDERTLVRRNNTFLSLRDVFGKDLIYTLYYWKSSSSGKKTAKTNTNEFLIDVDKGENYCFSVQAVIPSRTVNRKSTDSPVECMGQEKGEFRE
T1 sequence (P00742 235-488 limits assumed): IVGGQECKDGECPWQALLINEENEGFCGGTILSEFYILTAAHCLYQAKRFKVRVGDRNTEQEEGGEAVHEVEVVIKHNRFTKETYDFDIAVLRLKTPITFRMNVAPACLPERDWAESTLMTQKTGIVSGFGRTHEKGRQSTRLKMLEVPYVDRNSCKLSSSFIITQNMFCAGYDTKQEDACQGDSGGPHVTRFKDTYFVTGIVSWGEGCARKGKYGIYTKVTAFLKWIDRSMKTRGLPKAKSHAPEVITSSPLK
T1 sequence (P00742 41-179 limits assumed): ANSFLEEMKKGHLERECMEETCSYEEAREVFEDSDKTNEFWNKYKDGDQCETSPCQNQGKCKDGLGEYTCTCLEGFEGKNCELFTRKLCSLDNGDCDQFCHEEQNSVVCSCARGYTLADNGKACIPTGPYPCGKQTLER

| Ki [1] [µM] | Ki (human Factor Xa) [µM] | SMILES |
| --- | --- | --- |
| > 195 | 140 | C=CCOC(=O)[C@@H]1C[C@@H](Oc2cccc(C(=N)N)c2)CN1S(=O)(=O)c1ccccc1 [compound 74] |
| 30.5 | 15.5 | N=C(N)c1cccc(O[C@H]2CN[C@H](C(=O)Nc3cccc4ccccc34)C2)c1 [compound 33] |
| > 195 | > 175 | CS(=O)(=O)N1C[C@H](Oc2cccc(C(=N)N)c2)C[C@H]1C(=O)O [compound 81] |
| 312 | 15.2 | N=C(N)c1cccc(O[C@H]2CN[C@H](C(=O)NCc3ccc(N)cc3)C2)c1 [compound 30] |
| > 195 | 34.1 | COc1ccc(CNC(=O)[C@@H]2C[C@@H](Oc3cccc(C(=N)N)c3)CN2S(=O)(=O)c2ccccc2)cc1 [compound 50] |
| ≥ 390 | 22.8 | Cc1ccccc1CNC(=O)[C@@H]1C[C@@H](Oc2cccc(C(=N)N)c2)CN1 [compound 39] |
| ≥ 390 | 6.12 | Cc1cccc(CNC(=O)[C@@H]2C[C@@H](Oc3cccc(C(=N)N)c3)CN2)c1 [compound 13] |
| ≥ 390 | 105 | N=C(N)c1cccc(O[C@H]2CN[C@H](C(=O)NCc3ccncc3)C2)c1 [compound 71] |
| 156 | 24.5 | N=C(N)c1cccc(O[C@H]2CN[C@H](C(=O)Nc3ccccc3C(F)(F)F)C2)c1 [compound 43] |
| 133 | 37.1 | N=C(N)c1cccc(O[C@H]2CN[C@H](C(=O)NCCc3ccccc3)C2)c1 [compound 53] |
| 156 | 105 | N=C(N)c1cccc(O[C@@H]2C[C@@H](C(=O)O)N(Cc3ccccc3)C2)c1 [compound 70] |
| 89 | 24.4 | N#Cc1ccccc1NC(=O)[C@@H]1C[C@@H](Oc2cccc(C(=N)N)c2)CN1 [compound 42] |
| 312 | 21.7 | N=C(N)c1cccc(O[C@H]2CN[C@H](C(=O)NCc3ccccc3)C2)c1 [compound 37] |
| 117 | 14.2 | N=C(N)c1cccc(O[C@H]2CN[C@H](C(=O)Nc3ccc4ccccc4c3)C2)c1 [compound 29] |
| > 195 | 33.6 | COc1ccc(CNC(=O)[C@@H]2C[C@@H](Oc3cccc(C(=N)N)c3)CN2S(C)(=O)=O)cc1 [compound 48] |
| ≥ 390 | 31.4 | N=C(N)c1cccc(O[C@H]2CN[C@H](C(=O)NCc3ccccn3)C2)c1 [compound 47] |
| > 195 | > 175 | N=C(N)c1cccc(O[C@@H]2C[C@@H](C(=O)O)N(S(=O)(=O)c3ccccc3)C2)c1 [compound 82] |
| > 195 | 47.3 | COc1ccc(CNC(=O)[C@@H]2C[C@@H](Oc3cccc(C(=N)N)c3)CN2C(=O)c2ccccc2)cc1 [compound 56] |
| 156 | 13.3 | N=C(N)c1cccc(O[C@H]2CN[C@H](C(=O)NC3CCc4ccccc43)C2)c1 (some centres unmarked) [compound 25] |
| ≥ 390 | 50.7 | N=C(N)c1cccc(O[C@H]2CN[C@H](C(=O)NCc3cccnc3)C2)c1 [compound 58] |
| 98.5 | 5.35 | N=C(N)c1cccc(O[C@H]2CN[C@H](C(=O)N3CCc4ccccc4C3)C2)c1 [compound 10] |
| 312 | 9 | N=C(N)c1cccc(O[C@H]2CN[C@H](C(=O)NCc3cccc(Cl)c3)C2)c1 [compound 19] |
| 156 | 23 | CN(C(=O)[C@@H]1C[C@@H](Oc2cccc(C(=N)N)c2)CN1)c1ccccc1 [compound 40] |
| 273 | 44.9 | N=C(N)c1cccc(O[C@H]2CN[C@H](C(=O)N[C@@H](Cc3ccccc3)C(=O)O)C2)c1 [compound 55] |
| 156 | 27 | C[C@H](NC(=O)[C@@H]1C[C@@H](Oc2cccc(C(=N)N)c2)CN1)c1ccccc1 [compound 46] |
| 142 |  | C[C@@H](NC(=O)[C@@H]1C[C@@H](Oc2cccc(C(=N)N)c2)CN1)c1ccccc1 [compound 26] |

Second part, the molecule before the results:

| SMILES | Ki [1] [µM] | Ki (human Factor Xa) [µM] |
| --- | --- | --- |
| N=C(N)c1cccc(O[C@H]2CN[C@H](C(=O)N[C@@H](CCC(=O)O)C(=O)O)C2)c1 [compound 73] | ≥ 390 | 140 |
| N=C(N)c1cccc(O[C@H]2CN[C@H](C(=O)N3CCCCC3)C2)c1 [compound 35] | 94 | 19.7 |
| N=C(N)c1cccc(O[C@H]2CN[C@H](C(=O)N3CCCCC3CO)C2)c1 (some centres unmarked) [compound 68] | ≥ 390 | 89.6 |
| N=C(N)c1cccc(O[C@H]2CN[C@H](C(=O)Nc3ccc(C(F)(F)F)cc3)C2)c1 [compound 24] | 312 | 12.9 |
| N=C(N)c1ccc(NC(=O)[C@@H]2C[C@@H](Oc3cccc(C(=N)N)c3)CN2)cc1 [compound 2] | 64 | 1.15 |
| C[C@H](NC(=O)[C@@H]1C[C@@H](Oc2cccc(C(=N)N)c2)CN1)C(=O)O [compound 75] | ≥ 390 | 140 |
| N=C(N)c1cccc(O[C@H]2CN[C@H](C(=O)NC3CCCCC3)C2)c1 [compound 51] | 234 |  |
| N=C(N)c1cccc(O[C@H]2CN[C@H](C(=O)Nc3cccc(C(F)(F)F)c3)C2)c1 [compound 45] | 150 | 26.3 |
| CN1CCN(C(=O)[C@@H]2C[C@@H](Oc3cccc(C(=N)N)c3)CN2)CC1 [compound 18] | 273 | 8.87 |
| N#Cc1ccc(NC(=O)[C@@H]2C[C@@H](Oc3cccc(C(=N)N)c3)CN2)cc1 [compound 34] | 156 | 16.8 |
| N=C(N)c1cccc(O[C@H]2CN[C@H](C(N)=O)C2)c1 [compound 66] | 78 | 70.1 |
| N=C(N)c1cccc(O[C@H]2CN[C@H](C(=O)N3CCCC(C(=O)O)C3)C2)c1 (some centres unmarked) [compound 67] | ≥ 390 | 87.7 |
| COc1ccc(NC(=O)[C@@H]2C[C@@H](Oc3cccc(C(=N)N)c3)CN2)cc1 [compound 64] | 273 | 70.1 |
| N=C(N)c1cccc(O[C@H]2CN[C@H](C(=O)N3CCCC(CO)C3)C2)c1 (some centres unmarked) [compound 69] | 117 | 90.2 |
| N=C(N)c1cccc(O[C@H]2CN[C@H](C(=O)NCC(=O)O)C2)c1 [compound 77] | > 390 |  |
| N=C(N)c1cccc(O[C@H]2CN[C@H](C(=O)N3CCCC(C(N)=O)C3)C2)c1 (some centres unmarked) [compound 61] |  | 62 |
| N=C(N)c1cccc(O[C@H]2CN[C@H](C(=O)N3CCNCC3)C2)c1 [compound 63] | ≥ 390 | 70 |
| N=C(N)c1cccc(O[C@H]2CN[C@H](C(=O)N3CCCCC3CCO)C2)c1 (some centres unmarked) [compound 62] | > 390 | 64.6 |
| CC(C)[C@@H](NC(=O)[C@@H]1C[C@@H](Oc2cccc(C(=N)N)c2)CN1)C(=O)O [compound 72] | ≥ 390 | 132 |
| N=C(N)c1cccc(O[C@H]2CN[C@H](C(=O)N3CCC(O)CC3)C2)c1 [compound 57] | 312 | 49.3 |
| N=C(N)c1cccc(O[C@H]2CN[C@H](C(=O)NCCC3CNc4ccccc43)C2)c1 (some centres unmarked) [compound 12] | 156 | 6.02 |
| CCCNC(=O)[C@@H]1C[C@@H](Oc2cccc(C(=N)N)c2)CN1 [compound 49] | ≥ 390 | 33.8 |
| N=C(N)c1cccc(O[C@H]2CN[C@H](C(=O)N3CCCC3)C2)c1 [compound 38] | 129 | 21.7 |
| C=CCOC(=O)[C@@H]1C[C@@H](Oc2cccc(C(=N)N)c2)CN1S(C)(=O)=O [compound 78] | > 195 |  |
